Assay results from the NIST ThermoML archive (doi:10.1016/j.jct.2016.03.026).
Numbers after ± are expanded uncertainties.

Experiment: xn = mol fraction of the nth substance listed
Conditions: Fluid (supercritical or subcritical phases); for mass density: Vibrating tube method; for speed of sound: Frequency=5 MHz, Pulse-echo method

O=C=O [carbon dioxide] + CO
Conditions | mass density [kg/m3] | speed of sound [m/s]
263.15 K, 19700 kPa, x1 = 0.97 | 1052.08 ± 0.8 | –
263.15 K, 19725 kPa, x1 = 0.97 | 1052.13 ± 0.8 | –
263.15 K, 19750 kPa, x1 = 0.97 | 1052.26 ± 0.8 | –
263.15 K, 19775 kPa, x1 = 0.97 | 1052.28 ± 0.8 | –
263.15 K, 19800 kPa, x1 = 0.97 | 1052.34 ± 0.8 | –
263.15 K, 19825 kPa, x1 = 0.97 | 1052.45 ± 0.8 | –
263.15 K, 19850 kPa, x1 = 0.97 | 1052.5 ± 0.8 | –
263.15 K, 19875 kPa, x1 = 0.97 | 1052.59 ± 0.8 | –
263.15 K, 19900 kPa, x1 = 0.97 | 1052.67 ± 0.8 | –
263.15 K, 19925 kPa, x1 = 0.97 | 1052.75 ± 0.8 | –
263.15 K, 19950 kPa, x1 = 0.97 | 1052.83 ± 0.8 | –
263.15 K, 19975 kPa, x1 = 0.97 | 1052.91 ± 0.8 | –
263.15 K, 20000 kPa, x1 = 0.97 | 1052.99 ± 0.8 | –
263.16 K, 3280 kPa, x1 = 0.97 | – | 626.2 ± 1
263.16 K, 3800 kPa, x1 = 0.97 | – | 633.5 ± 1
263.16 K, 5050 kPa, x1 = 0.97 | – | 649.7 ± 1
263.16 K, 6020 kPa, x1 = 0.97 | – | 661.8 ± 1
263.16 K, 6170 kPa, x1 = 0.97 | – | 664.3 ± 1
263.16 K, 8100 kPa, x1 = 0.97 | – | 687.5 ± 1
263.16 K, 10020 kPa, x1 = 0.97 | – | 706.8 ± 1
263.16 K, 14960 kPa, x1 = 0.97 | – | 752.4 ± 1.1
263.16 K, 19890 kPa, x1 = 0.97 | – | 792.8 ± 1.1
263.16 K, 24920 kPa, x1 = 0.97 | – | 829.4 ± 1.1
263.16 K, 29960 kPa, x1 = 0.97 | – | 862.5 ± 1.1
263.16 K, 34890 kPa, x1 = 0.97 | – | 892.6 ± 1.2
263.16 K, 39940 kPa, x1 = 0.97 | – | 921 ± 1.2
263.16 K, 44890 kPa, x1 = 0.97 | – | 947 ± 1.2
263.16 K, 49990 kPa, x1 = 0.97 | – | 972.3 ± 1.3
263.16 K, 54910 kPa, x1 = 0.97 | – | 995.6 ± 1.3
263.16 K, 60010 kPa, x1 = 0.97 | – | 1018.3 ± 1.3
263.16 K, 65090 kPa, x1 = 0.97 | – | 1039.8 ± 1.3
263.16 K, 69970 kPa, x1 = 0.97 | – | 1059.9 ± 1.4
263.16 K, 75000 kPa, x1 = 0.97 | – | 1079.5 ± 1.4
263.16 K, 80150 kPa, x1 = 0.97 | – | 1098.9 ± 1.4
263.16 K, 90130 kPa, x1 = 0.97 | – | 1134.4 ± 1.5
263.16 K, 100140 kPa, x1 = 0.97 | – | 1168 ± 1.5
263.16 K, 110060 kPa, x1 = 0.97 | – | 1199.3 ± 1.5
263.16 K, 119960 kPa, x1 = 0.97 | – | 1228.9 ± 1.6
263.16 K, 140000 kPa, x1 = 0.97 | – | 1284.7 ± 1.6
263.16 K, 159900 kPa, x1 = 0.97 | – | 1335.8 ± 1.7
263.16 K, 179990 kPa, x1 = 0.97 | – | 1383.3 ± 1.8
263.16 K, 194490 kPa, x1 = 0.97 | – | 1415.5 ± 1.8
263.18 K, 6060 kPa, x1 = 0.7534 | – | 735.8 ± 1.1
263.18 K, 9710 kPa, x1 = 0.7534 | – | 770.9 ± 1.1
263.18 K, 14730 kPa, x1 = 0.7534 | – | 813.5 ± 1.1
263.18 K, 14950 kPa, x1 = 0.9803 | – | 747.6 ± 1
263.18 K, 20160 kPa, x1 = 0.7534 | – | 854.1 ± 1.2
263.18 K, 24940 kPa, x1 = 0.7534 | – | 886.4 ± 1.2
263.18 K, 30090 kPa, x1 = 0.7534 | – | 918.5 ± 1.2
263.18 K, 34860 kPa, x1 = 0.9803 | – | 887.4 ± 1.2
263.18 K, 35000 kPa, x1 = 0.7534 | – | 946.9 ± 1.2
263.18 K, 39910 kPa, x1 = 0.9803 | – | 916.3 ± 1.2
263.18 K, 40020 kPa, x1 = 0.7534 | – | 974 ± 1.3
263.18 K, 44820 kPa, x1 = 0.7534 | – | 998.5 ± 1.3
263.18 K, 44980 kPa, x1 = 0.9803 | – | 943.5 ± 1.2
263.18 K, 49950 kPa, x1 = 0.7534 | – | 1023.2 ± 1.3
263.18 K, 50170 kPa, x1 = 0.9803 | – | 969 ± 1.3
263.18 K, 55000 kPa, x1 = 0.9803 | – | 992.2 ± 1.3
263.18 K, 55090 kPa, x1 = 0.7534 | – | 1046.8 ± 1.4
263.18 K, 59880 kPa, x1 = 0.7534 | – | 1067.8 ± 1.4
263.18 K, 60140 kPa, x1 = 0.9803 | – | 1015.5 ± 1.3
263.18 K, 64760 kPa, x1 = 0.9803 | – | 1035.7 ± 1.3
263.18 K, 64880 kPa, x1 = 0.7534 | – | 1088.8 ± 1.4
263.18 K, 70160 kPa, x1 = 0.9803 | – | 1058.2 ± 1.4
263.18 K, 70360 kPa, x1 = 0.7534 | – | 1110.8 ± 1.4
263.18 K, 75340 kPa, x1 = 0.7534 | – | 1130 ± 1.5
263.18 K, 75410 kPa, x1 = 0.9803 | – | 1078.8 ± 1.4
263.18 K, 79750 kPa, x1 = 0.9803 | – | 1095.2 ± 1.4
263.18 K, 80260 kPa, x1 = 0.7534 | – | 1148.4 ± 1.5
263.18 K, 89760 kPa, x1 = 0.7534 | – | 1182.3 ± 1.5
263.18 K, 89940 kPa, x1 = 0.9803 | – | 1132.1 ± 1.5
263.18 K, 99680 kPa, x1 = 0.9803 | – | 1165 ± 1.5
263.18 K, 100040 kPa, x1 = 0.7534 | – | 1216.8 ± 1.6
263.18 K, 109950 kPa, x1 = 0.9803 | – | 1197.7 ± 1.5
263.18 K, 110590 kPa, x1 = 0.7534 | – | 1250.3 ± 1.6
263.18 K, 119810 kPa, x1 = 0.7534 | – | 1278.1 ± 1.6
263.18 K, 120700 kPa, x1 = 0.9803 | – | 1230.1 ± 1.6
263.18 K, 140780 kPa, x1 = 0.9803 | – | 1286.1 ± 1.6
263.18 K, 141280 kPa, x1 = 0.7534 | – | 1338.3 ± 1.7
263.18 K, 159890 kPa, x1 = 0.7534 | – | 1386.5 ± 1.8
263.18 K, 160950 kPa, x1 = 0.9803 | – | 1337.6 ± 1.7
263.18 K, 179550 kPa, x1 = 0.7534 | – | 1433.7 ± 1.8
263.18 K, 179550 kPa, x1 = 0.9803 | – | 1382.1 ± 1.8
263.19 K, 6000 kPa, x1 = 0.8502 | – | 691.2 ± 1
263.19 K, 9880 kPa, x1 = 0.8502 | – | 731.2 ± 1
263.19 K, 14650 kPa, x1 = 0.8502 | – | 773.8 ± 1.1
263.19 K, 19850 kPa, x1 = 0.8502 | – | 814.7 ± 1.1
263.19 K, 24990 kPa, x1 = 0.8502 | – | 850.9 ± 1.1
263.19 K, 29690 kPa, x1 = 0.8502 | – | 881.1 ± 1.2
263.19 K, 35020 kPa, x1 = 0.8502 | – | 912.8 ± 1.2
263.19 K, 40080 kPa, x1 = 0.8502 | – | 940.7 ± 1.2
263.19 K, 44910 kPa, x1 = 0.8502 | – | 965.8 ± 1.3
263.19 K, 50170 kPa, x1 = 0.8502 | – | 991.7 ± 1.3
263.19 K, 55230 kPa, x1 = 0.8502 | – | 1015.1 ± 1.3
263.19 K, 60100 kPa, x1 = 0.8502 | – | 1036.7 ± 1.3
263.19 K, 64650 kPa, x1 = 0.8502 | – | 1056 ± 1.4
263.19 K, 70030 kPa, x1 = 0.8502 | – | 1078 ± 1.4
263.19 K, 74380 kPa, x1 = 0.8502 | – | 1095.2 ± 1.4
263.19 K, 80050 kPa, x1 = 0.8502 | – | 1116.4 ± 1.4
263.19 K, 90050 kPa, x1 = 0.8502 | – | 1152.6 ± 1.5
263.19 K, 100540 kPa, x1 = 0.8502 | – | 1187.6 ± 1.5
263.19 K, 110230 kPa, x1 = 0.8502 | – | 1218.2 ± 1.6
263.19 K, 120050 kPa, x1 = 0.8502 | – | 1247.8 ± 1.6
263.19 K, 140150 kPa, x1 = 0.8502 | – | 1303.4 ± 1.7
263.19 K, 150270 kPa, x1 = 0.8502 | – | 1329.1 ± 1.7
273.15 K, 4600 kPa, x1 = 0.97 | 940.38 ± 0.8 | –
273.15 K, 4625 kPa, x1 = 0.97 | 940.6 ± 0.8 | –
273.15 K, 4650 kPa, x1 = 0.97 | 940.77 ± 0.8 | –
273.15 K, 4675 kPa, x1 = 0.97 | 941.01 ± 0.8 | –
273.15 K, 4700 kPa, x1 = 0.97 | 941.48 ± 0.8 | –
273.15 K, 4725 kPa, x1 = 0.97 | 941.61 ± 0.8 | –
273.15 K, 4750 kPa, x1 = 0.97 | 941.7 ± 0.8 | –
273.15 K, 4775 kPa, x1 = 0.97 | 942 ± 0.8 | –
273.15 K, 4800 kPa, x1 = 0.97 | 942.41 ± 0.8 | –
273.15 K, 4825 kPa, x1 = 0.97 | 942.58 ± 0.8 | –
273.15 K, 4850 kPa, x1 = 0.97 | 942.76 ± 0.8 | –
273.15 K, 4875 kPa, x1 = 0.97 | 942.95 ± 0.8 | –
273.15 K, 4900 kPa, x1 = 0.97 | 943.14 ± 0.8 | –
273.15 K, 4925 kPa, x1 = 0.97 | 943.32 ± 0.8 | –
273.15 K, 4950 kPa, x1 = 0.97 | 943.48 ± 0.8 | –
273.15 K, 4975 kPa, x1 = 0.97 | 943.65 ± 0.8 | –
273.15 K, 5000 kPa, x1 = 0.97 | – | 570.5 ± 0.9
